From PMC11971306, “Enzymatic Birch reduction via hydrogen atom transfer at [4Fe-4S]-OH2 and [8Fe-9S] clusters” (Nature Communications, 2025)

Assays:
BzdNO [1] = target: T1, BzdNO (Azoarcus sp. CIB, UniProt Z9PSW1D6O9); assay: X-ray crystallography, no ligand added; format: binding; conditions: weakly occupied, co-purified; partially CoA-free state
T1 construct: BzdN + BzdO heterodimer (catalytic dimer of class I benzoyl-CoA reductase, BZD type) without BzdPQ; C-terminal Strep-tag on BzdO; anaerobic purification; about 95 kDa theoretical, 107 kDa by SEC; BzdN to residue 376, BzdO to residue 442 (domain borders); with Benzoyl-CoA reductase subunit BzdN
T1 sequence (Z9PSW1D6O9 1-437): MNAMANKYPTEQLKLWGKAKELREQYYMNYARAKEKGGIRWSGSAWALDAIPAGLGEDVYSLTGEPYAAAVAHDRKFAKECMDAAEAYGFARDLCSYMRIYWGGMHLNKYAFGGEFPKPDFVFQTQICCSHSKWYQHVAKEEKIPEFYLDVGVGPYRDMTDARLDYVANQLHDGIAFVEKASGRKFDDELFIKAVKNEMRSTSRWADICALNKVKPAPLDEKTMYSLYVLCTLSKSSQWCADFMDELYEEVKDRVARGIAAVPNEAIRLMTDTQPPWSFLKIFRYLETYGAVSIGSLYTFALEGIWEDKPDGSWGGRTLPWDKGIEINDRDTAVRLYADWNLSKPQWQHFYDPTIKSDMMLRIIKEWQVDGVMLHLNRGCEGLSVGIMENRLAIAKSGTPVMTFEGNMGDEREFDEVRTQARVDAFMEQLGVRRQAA
T1 sequence (Z9U3P4NCS5 1-379 partner): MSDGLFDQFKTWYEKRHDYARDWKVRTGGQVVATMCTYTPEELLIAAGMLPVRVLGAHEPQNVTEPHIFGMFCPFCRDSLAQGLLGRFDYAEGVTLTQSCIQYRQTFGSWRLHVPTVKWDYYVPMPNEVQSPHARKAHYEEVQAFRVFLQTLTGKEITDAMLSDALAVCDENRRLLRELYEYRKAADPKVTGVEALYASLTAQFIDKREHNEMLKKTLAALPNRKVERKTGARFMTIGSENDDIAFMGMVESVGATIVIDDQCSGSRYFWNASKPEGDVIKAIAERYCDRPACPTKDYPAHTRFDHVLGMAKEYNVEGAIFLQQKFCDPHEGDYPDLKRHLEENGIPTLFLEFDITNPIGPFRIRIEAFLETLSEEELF

BzdNO [2] = target: T1, BzdNO; assay: X-ray crystallography, co-crystal; format: binding; conditions: 1.4 Å; 5 mM compound, pH 7.5, anaerobic; non-covalent; active site channel of BzdO in front of [4Fe-4S]-OH2 cluster
BzdNO [3] = target: T1, BzdNO; assay: X-ray crystallography, co-crystal; also turnover in reverse reaction; format: binding; conditions: 5 mM compound, pH 7.5, anaerobic; non-covalent; same site as benzoyl-CoA; substrate of the reverse, viologen-dependent rearomatization
BzdNO [4] = target: T1, BzdNO; assay: rearomatization of dienoyl-CoA to benzoyl-CoA, UPLC; format: biochemical; conditions: artificial electron acceptor 0.5 mM; 0.2 mM dienoyl-CoA, pH 8.8, 30 °C, anaerobic

CC(C)(COP(=O)(O)OP(=O)(O)OC[C@H]1O[C@@H](n2cnc3c(N)ncnc32)[C@H](O)[C@@H]1OP(=O)(O)O)[C@@H](O)C(=O)NCCC(=O)NCCS [CoA]
X-ray crystallography, no ligand added (BzdNO [1]): appears to contain besides several solvent molecules a weakly occupied CoA ligand

CC(C)(COP(=O)(O)OP(=O)(O)OC[C@H]1O[C@@H](n2cnc3c(N)ncnc32)[C@H](O)[C@@H]1OP(=O)(O)O)[C@@H](O)C(=O)NCCC(=O)NCCSC(=O)c1ccccc1 [benzoyl-CoA]
X-ray crystallography, co-crystal (BzdNO [2]): determined in a BzCoA bound (pdb 8SO2), dienoyl-CoA bound (pdb 8S1T)

CC(C)(COP(=O)(O)OP(=O)(O)OC[C@H]1O[C@@H](n2cnc3c(N)ncnc32)[C@H](O)[C@@H]1OP(=O)(O)O)[C@@H](O)C(=O)NCCC(=O)NCCSC(=O)C1=CCCC=C1 [dienoyl-CoA, cyclohexa-1,5-diene-1-carbonyl-CoA]
X-ray crystallography, co-crystal; also turnover in reverse reaction (BzdNO [3]): BzdNO in complex with the product dienoyl-CoA reveals the identical binding mode as the substrate

C[n+]1ccc(-c2cc[n+](C)cc2)cc1 [methyl viologen]
rearomatization of dienoyl-CoA to benzoyl-CoA, UPLC (BzdNO [4]): methyl viologen-dependent rearomatization of dienoyl-CoA to BzCoA
